The test system of test [1] is primary normal human melanocytes (R6-NHEM-2). Kind of test: Melanogenesis assay (melanin content after 240 hours incubation, OD at 405 nm against melanin standard). In kind it is cell-based. Conditions: for Melanin: 240 hours incubation. How it is done:
The action of the compounds of the formula I as tanning agents is tested through the ability to increase melanin synthesis. The reference used is kojic acid, which acts on melanin synthesis and prevents a possible brown coloration of the skin. It can be seen from Table 1 that the compounds Ia to 1 g according to the invention are distinguished by the fact that—after topical application—they induce the formation of skin-inherent pigments in the skin, increase melanin synthesis in the skin and in this way produce enhanced tanning of the skin. They have no adverse health effects, are non-irritant and easy to handle, and the resultant hue naturally corresponds to that of the natural healthy skin colour. The tanning obtained is light-fast and cannot be washed off since it corresponds to natural tanning. To this end, primary normal human melanocytes (R6-NHEM-2)* are cultivated in 24 microtitre plates (96-well, 120,000 cells per tube). Two additional plates are carried out, one for evaluation of the viability of the cells (standard MTT assay) and a second for protein investigation (using a […] standard protocol). After 50% confluence, the culture medium is replaced by fresh culture medium which comprises either the control solution (KA or IBMX) or the 7 solutions to be investigated. Each experiment is repeated 3 times. The cells are incubated at 37° C. (and 5% CO2) for 240 hours, during which the medium is changed every 3 days. After incubation, monolayers are rinsed, the cells are destroyed, and melanin is extracted by means of a 0.5 M NaOH solution. *NHEM-2=normal human epidermal melanocytes (cell type) The optical density (OD) of each experimentally determined value is measured at 405 nm against the melanin standard (standard curve 0.39 to 100 μg/ml of melanin, Sigma M8631). The measurement results are quoted in μg/ml of melanin and in percent of the negative untreated control.

Test [2] in a line: Tanning activity of intermediates or precursors (statement, no method given).
The mark [3] stands for this setting: Homo sapiens, Melanocyte, 240 h, 200 μM, percent of the negative untreated control.
[4] abbreviates: Homo sapiens, Melanocyte, 240 h, 8 μM, percent of the negative untreated control.
The mark [5] stands for this setting: Homo sapiens, Melanocyte, 240 h, 40 μM, percent of the negative untreated control.
The mark [6] stands for this setting: Homo sapiens, Melanocyte, 240 h, 1.6 μM, percent of the negative untreated control.

Molecules are shown by their SMILES.

The results in this text go back to US20090220438A1, “CHROMEN-4-ONE DERIVATIVES AS SELF-TANNING SUBSTANCE” (MERCK PATENT GMBH, priority 2006, published 2009).

For the compound `CC(C)Cn1c(=O)n(C)c(=O)c2[nH]cnc21` [IBMX, 3-isobutyl-1-methylxanthine, reference compound], the Melanin in test [1] (200 μM) was 15.39 µg/mL. In test [1] (setting [3]), the activity at 200 µM turned out to be 166%.
With `COCC(=O)c1c(COC)oc2cc(O)cc(O)c2c1=O` [IIa, 5,7-dihydroxy-3-(2-methoxyacetyl)-2-methoxymethyl-1-benzopyran-4-one], the “Tanning activity (in words)” value in test [2] was “have a tanning activity”.
Take `COCc1cc(=O)c2c(O)cc(O)cc2o1` [Ia, 5,7-dihydroxy-2-methoxymethylchromen-4-one]: the Melanin in test [1] (50 μM) was found to be 17.87 µg/mL; in test [1] (150 μM), 22.14 µg/mL; in test [1] (450 μM), 19.98 µg/mL. The activity at 50 µM in test [1] (Homo sapiens, Melanocyte, 240 h, 50 μM, percent of the negative untreated control) turned out to be 192%. Besides, the activity at 150 µM in test [1] (Homo sapiens, Melanocyte, 240 h, 150 μM, percent of the negative untreated control) is 239%. Also, in test [1] (Homo sapiens, Melanocyte, 240 h, 450 μM, percent of the negative untreated control), the activity at 450 µM turned out to be 215%.
Take `COCc1oc2cc(O)cc(O)c2c(=O)c1OC` [Ib, 5,7-dihydroxy-3-methoxy-2-methoxymethylchromen-4-one]: the Melanin was found to be 20.9 µg/mL in test [1] (8 μM), 23.7 µg/mL in test [1] (40 μM) and 25.2 µg/mL in test [1] (200 μM). For the same compound, the activity at 8 µM in test [1] (setting [4]) came out at 106%. Moreover, the activity at 40 µM in test [1] (setting [5]) was determined as 120%. In addition, in test [1] (setting [3]), the activity at 200 µM stood at 128%.
In the case of `O=c1c(O)c(CO)oc2cc(O)cc(O)c12` [Ic], the Melanin is 20.8 µg/mL in test [1] (8 μM), 23.8 µg/mL in test [1] (40 μM) and 27.6 µg/mL in test [1] (200 μM). For the same compound, the activity at 8 µM in test [1] (setting [4]) turned out to be 105%. Also, in test [1] (setting [5]), the activity at 40 µM worked out at 120%. The activity at 200 µM in test [1] (setting [3]) stood at 139%.
For `COc1c(C)oc2cc(O)cc(O)c2c1=O` [Id, 5,7-dihydroxy-3-methoxy-2-methylchromen-4-one], the Melanin in test [1] (1.6 μM) was determined as 20.8 µg/mL; in test [1] (8 μM) it was 22.0 µg/mL; in test [1] (40 μM), 27.0 µg/mL. The activity at 1.6 µM in test [1] (setting [6]) is 106%. Besides, the activity at 8 µM in test [1] (setting [4]) turned out to be 112%. In addition, in test [1] (setting [5]), the activity at 40 µM was 137%.
`Cc1oc2cc(O)cc(O)c2c(=O)c1O` [Ie, 2-methyl-3,5,7-trihydroxychromen-4-one]: the Melanin in test [1] (8 μM) came out at 20.6 µg/mL; in test [1] (40 μM), 23.9 µg/mL; in test [1] (200 μM), 27.2 µg/mL. In addition, the activity at 8 µM in test [1] (setting [4]) is 104%. Also, the activity at 40 µM in test [1] (setting [5]) is 121%. In test [1] (setting [3]), the activity at 200 µM was found to be 138%.
Consider `O=c1ccoc2cc(O)ccc12` [If, 7-hydroxychromen-4-one], for which the Melanin in test [1] (1.6 μM) came out at 19.9 µg/mL; in test [1] (8 μM), 20.3 µg/mL; in test [1] (40 μM), 24.7 µg/mL. Also, the activity at 1.6 µM in test [1] (setting [6]) is 100%. The activity at 8 µM in test [1] (setting [4]) is 102%. Also, the activity at 40 µM in test [1] (setting [5]) turned out to be 124%.
Turning to `O=c1ccoc2c(O)c(O)ccc12` [Ig, 7,8-dihydroxychromen-4-one], the Melanin in test [1] (0.32 μM) worked out at 20.7 µg/mL; in test [1] (1.6 μM), 19.9 µg/mL; in test [1] (8 μM) it was 19.8 µg/mL. The activity at 0.32 µM in test [1] (Homo sapiens, Melanocyte, 240 h, 0.32 μM, percent of the negative untreated control) turned out to be 104%. The activity at 1.6 µM in test [1] (setting [6]) came out at 100%. Also, the activity at 8 µM in test [1] (setting [4]) is 100%.
Consider `O=c1cc(CO)occ1O` [Kojic acid, kojic acid, reference compound], for which the Melanin in test [1] (560 μM) is 5.55 µg/mL. Moreover, the activity at 560 µM in test [1] (Homo sapiens, Melanocyte, 240 h, 560 μM, percent of the negative untreated control) came out at 55%.
